Laboratory results: patent publication US20020137929A1, “1 - (3-heterocyclylphenyl) isothiourea, -isourea, -guanidine and -amidine herbicidal agents” (Intellectual Property Department, BASF Aktiengesellschaft, priority 1998, published 2002)

Experiments:
SETVI (Foxtail, Green) [1] = assay: Postemergence herbicidal evaluation; type: in vivo, Setaria viridis; settings: postemergence
In short: (§1)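 Young plants, roughly two weeks from seeding, receive the active ingredient as a sprayed dispersion (acetone/water 50/50, 0.5% TWEEN 20) at 40 psi. Doses span about 0.0156 to 0.500 kg/ha. A visual score from 0 to 9 compares treated with control plants four to five weeks on.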

[2] = system: TRZAWR (Wheat, Winter, cv Riband); assay: Preemergence herbicidal evaluation; type: in vivo, Triticum aestivum; settings: rated 4-5 weeks after treatment
In short: (§2)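 Seeds were mixed with potting soil and planted on about one inch of soil, then sprayed with test compound in aqueous acetone at about 0.0156 to 0.500 kg per hectare. Plants grew under standard greenhouse care and were visually rated 0-9 against untreated controls 4-5 weeks post-treatment.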

ECHCG (Barnyardgrass) = assay: Preemergence herbicidal evaluation; type: in vivo, Echinochloa crus-galli; settings: rated 4-5 weeks after treatment
In short: as §2

CYPIR (Rice Flatsedge) [3] = assay: Postemergence weed control under flooded paddy conditions; type: in vivo, Cyperus iria; settings: postemergence weeds, rated 3 to 4 weeks after treatment
In short: (§3)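 With weeds 3 to 5 cm tall and rice at the 1.5 to 2.5 leaf stage, containers were flooded and water held 1.5 to 3 cm above soil. Compounds in 50/50 v/v aqueous/acetone went into the flood water at about 0.0313 to 0.500 kg/ha a.i. Effects were visually rated 0–9 against controls after three to four weeks in the greenhouse.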

CYPSE (Flatsedge) [4] = assay: as above; type: in vivo, Cyperus serotinus; settings: postemergence weeds, rated 3 to 4 weeks after treatment
In short: as §3

[5] = system: ECHORC (Watergrass (Calif.)); assay: Preemergence weed control under flooded paddy conditions; type: in vivo, Echinochloa oryzoides; settings: rated 3-4 weeks after treatment
In short: (§4)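 Seeds or propagules sown in silt loam kept flooded 1.5-3 cm; compounds in 50/50 acetone/water pipetted into flood water at about 0.0313 to 0.500 kg/ha. Greenhouse; visual 0-9 rating versus untreated control 3-4 weeks after treatment.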

ZEAMX (Corn, Field) [6] = assay: Postemergence herbicidal evaluation; type: in vivo, Zea mays; settings: postemergence
In short: as §1

[7] = system: ECHORC (Watergrass (Calif.)); assay: Postemergence weed control under flooded paddy conditions; type: in vivo, Echinochloa oryzoides; settings: postemergence weeds, rated 3 to 4 weeks after treatment
In short: as §3

ORYSAT (Rice, Tebonnet) = assay: Postemergence herbicidal evaluation; type: in vivo, Oryza sativa, (L.) Tebonnet; settings: postemergence
In short: as §1

CYPSE (Flatsedge) [8] = assay: Preemergence weed control under flooded paddy conditions; type: in vivo, Cyperus serotinus; settings: rated 3-4 weeks after treatment
In short: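 First, seeds or propagules go into the top 0.5 cm of silt loam; next, water is held 1.5 to 3 cm over the soil; then compound (50/50 acetone/water) is pipetted into it at about 0.0313 to 0.500 kg/ha; finally plants are rated visually 0-9 after three to four weeks.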

SETVI (Foxtail, Green) [9] = assay: Preemergence herbicidal evaluation; type: in vivo, Setaria viridis; settings: rated 4-5 weeks after treatment
In short: as §2

[10] = system: SAGPY (Arrowhead (Pygmaea)); assay: Postemergence weed control under flooded paddy conditions; type: in vivo, Sagittaria pygmaea; settings: postemergence weeds, rated 3 to 4 weeks after treatment
In short: as §3

CYPIR (Rice Flatsedge) [11] = assay: Preemergence weed control under flooded paddy conditions; type: in vivo, Cyperus iria; settings: rated 3-4 weeks after treatment
In short: as §4

ZEAMX (Corn, Field) [12] = assay: Preemergence herbicidal evaluation; type: in vivo, Zea mays; settings: rated 4-5 weeks after treatment
In short: as §2

C=CCN1C(=O)C(CC(=O)OC(C)C)SC1=Nc1cc(-n2c(=O)cc(C(F)(F)F)n(C)c2=O)c(F)cc1Cl (stereo not shown) [Compound 66, Isopropyl 3-allyl-2-{{2-chloro-5-[3,6-dihydro-3-methyl-2,6-dioxo-4-(trifluoromethyl)-1(2H)-pyrimidinyl]-4-fluorophenyl}imino}-4-oxo-5-thiazolidineacetate]
SETVI herbicidal rating (SETVI (Foxtail, Green) [1]; rate 0.0158 kg/ha): 2.0
SETVI herbicidal rating (SETVI (Foxtail, Green) [1]; rate 0.0313 kg/ha): 9.0
SETVI herbicidal rating (SETVI (Foxtail, Green) [1]; rate 0.0625 kg/ha): 9.0
SETVI herbicidal rating (SETVI (Foxtail, Green) [1]; rate 0.1250 kg/ha): 9.0
Preemergence herbicidal rating TRZAWR ([2]; rate 0.0156 kg/ha): 0.0
Preemergence herbicidal rating TRZAWR ([2]; rate 0.0313 kg/ha): 0.0
Preemergence herbicidal rating TRZAWR ([2]; rate 0.0625 kg/ha): 0.5
Preemergence herbicidal rating TRZAWR ([2]; rate 0.1250 kg/ha): 0.5
Preemergence herbicidal rating TRZAWR ([2]; rate 0.2500 kg/ha): 1.0
Preemergence herbicidal rating TRZAWR ([2]; rate 0.5000 kg/ha): 4.0
Preemergence herbicidal rating ECHCG (ECHCG (Barnyardgrass); rate 0.0156 kg/ha): 0.0
Preemergence herbicidal rating ECHCG (ECHCG (Barnyardgrass); rate 0.0313 kg/ha): 0.0
Preemergence herbicidal rating ECHCG (ECHCG (Barnyardgrass); rate 0.0625 kg/ha): 0.5
Preemergence herbicidal rating ECHCG (ECHCG (Barnyardgrass); rate 0.1250 kg/ha): 0.5
Preemergence herbicidal rating ECHCG (ECHCG (Barnyardgrass); rate 0.2500 kg/ha): 3.0
Preemergence herbicidal rating ECHCG (ECHCG (Barnyardgrass); rate 0.5000 kg/ha): 9.0
Herbicidal rating CYPIR (CYPIR (Rice Flatsedge) [3]; Rate 0.0313 kg/ha): 6.0
Herbicidal rating CYPIR (CYPIR (Rice Flatsedge) [3]; Rate 0.0625 kg/ha): 6.0
Herbicidal rating CYPIR (CYPIR (Rice Flatsedge) [3]; Rate 0.1250 kg/ha): 7.0
Herbicidal rating CYPIR (CYPIR (Rice Flatsedge) [3]; Rate 0.2500 kg/ha): 7.0
Herbicidal rating CYPSE (CYPSE (Flatsedge) [4]; Rate 0.0313 kg/ha): 0.0
Herbicidal rating CYPSE (CYPSE (Flatsedge) [4]; Rate 0.0625 kg/ha): 0.0
Herbicidal rating CYPSE (CYPSE (Flatsedge) [4]; Rate 0.1250 kg/ha): 4.0
Herbicidal rating CYPSE (CYPSE (Flatsedge) [4]; Rate 0.2500 kg/ha): 4.0
ECHORC herbicidal effect rating ([5]; 0.0313 kg/ha): 7.0
ECHORC herbicidal effect rating ([5]; 0.0625 kg/ha): 7.0
ECHORC herbicidal effect rating ([5]; 0.1250 kg/ha): 9.0
ECHORC herbicidal effect rating ([5]; 0.2500 kg/ha): 9.0
ZEAMX herbicidal rating (ZEAMX (Corn, Field) [6]; rate 0.0158 kg/ha): 7.0
ZEAMX herbicidal rating (ZEAMX (Corn, Field) [6]; rate 0.0313 kg/ha): 8.5
ZEAMX herbicidal rating (ZEAMX (Corn, Field) [6]; rate 0.0625 kg/ha): 9.0
ZEAMX herbicidal rating (ZEAMX (Corn, Field) [6]; rate 0.1250 kg/ha): 9.0
Herbicidal rating ECHORC ([7]; Rate 0.0313 kg/ha): 7.0
Herbicidal rating ECHORC ([7]; Rate 0.0625 kg/ha): 7.0
Herbicidal rating ECHORC ([7]; Rate 0.1250 kg/ha): 9.0
Herbicidal rating ECHORC ([7]; Rate 0.2500 kg/ha): 9.0
ORYSAT herbicidal rating (ORYSAT (Rice, Tebonnet); rate 0.0158 kg/ha): 3.5
ORYSAT herbicidal rating (ORYSAT (Rice, Tebonnet); rate 0.0313 kg/ha): 5.0
ORYSAT herbicidal rating (ORYSAT (Rice, Tebonnet); rate 0.0625 kg/ha): 5.5
ORYSAT herbicidal rating (ORYSAT (Rice, Tebonnet); rate 0.1250 kg/ha): 5.5
CYPSE herbicidal effect rating (CYPSE (Flatsedge) [8]; 0.0313 kg/ha): 0.0
CYPSE herbicidal effect rating (CYPSE (Flatsedge) [8]; 0.0625 kg/ha): 0.0
CYPSE herbicidal effect rating (CYPSE (Flatsedge) [8]; 0.1250 kg/ha): 4.0
CYPSE herbicidal effect rating (CYPSE (Flatsedge) [8]; 0.2500 kg/ha): 4.0
Preemergence herbicidal rating SETVI (SETVI (Foxtail, Green) [9]; rate 0.0156 kg/ha): 0.0
Preemergence herbicidal rating SETVI (SETVI (Foxtail, Green) [9]; rate 0.0313 kg/ha): 0.5
Preemergence herbicidal rating SETVI (SETVI (Foxtail, Green) [9]; rate 0.0625 kg/ha): 0.5
Preemergence herbicidal rating SETVI (SETVI (Foxtail, Green) [9]; rate 0.1250 kg/ha): 6.0
Preemergence herbicidal rating SETVI (SETVI (Foxtail, Green) [9]; rate 0.2500 kg/ha): 7.5
Preemergence herbicidal rating SETVI (SETVI (Foxtail, Green) [9]; rate 0.5000 kg/ha): 9.0
Herbicidal rating SAGPY ([10]; Rate 0.0313 kg/ha): 3.0
Herbicidal rating SAGPY ([10]; Rate 0.0625 kg/ha): 4.0
Herbicidal rating SAGPY ([10]; Rate 0.1250 kg/ha): 4.0
Herbicidal rating SAGPY ([10]; Rate 0.2500 kg/ha): 4.0
CYPIR herbicidal effect rating (CYPIR (Rice Flatsedge) [11]; 0.0313 kg/ha): 6.0
CYPIR herbicidal effect rating (CYPIR (Rice Flatsedge) [11]; 0.0625 kg/ha): 6.0
CYPIR herbicidal effect rating (CYPIR (Rice Flatsedge) [11]; 0.1250 kg/ha): 7.0
CYPIR herbicidal effect rating (CYPIR (Rice Flatsedge) [11]; 0.2500 kg/ha): 7.0
Preemergence herbicidal rating ZEAMX (ZEAMX (Corn, Field) [12]; rate 0.0156 kg/ha): 0.5
Preemergence herbicidal rating ZEAMX (ZEAMX (Corn, Field) [12]; rate 0.0313 kg/ha): 0.0
Preemergence herbicidal rating ZEAMX (ZEAMX (Corn, Field) [12]; rate 0.0625 kg/ha): 0.5
Preemergence herbicidal rating ZEAMX (ZEAMX (Corn, Field) [12]; rate 0.1250 kg/ha): 1.0
Preemergence herbicidal rating ZEAMX (ZEAMX (Corn, Field) [12]; rate 0.2500 kg/ha): 2.5
Preemergence herbicidal rating ZEAMX (ZEAMX (Corn, Field) [12]; rate 0.5000 kg/ha): 7.0
